Experimental data reported in article PMC11345841, “Exploring 2-Sulfonylpyrimidine Warheads as Acrylamide Surrogates for Targeted Covalent Inhibition: A BTK Story” (Journal of Medicinal Chemistry, 2024).
Like-named read-outs stand apart in the source and are kept apart here.

Key:
FLT3(ITD,F691L) = assay: KINOMEscan ScanTK; assay type: binding
CTK = target: T1, CTK (Homo sapiens, UniProt P42679); assay: KINOMEscan ScanTK; assay type: binding
T1 construct: purchased Eurofins DiscoverX KINOMEscan (scanTK)
T1 sequence (P42679 1-507): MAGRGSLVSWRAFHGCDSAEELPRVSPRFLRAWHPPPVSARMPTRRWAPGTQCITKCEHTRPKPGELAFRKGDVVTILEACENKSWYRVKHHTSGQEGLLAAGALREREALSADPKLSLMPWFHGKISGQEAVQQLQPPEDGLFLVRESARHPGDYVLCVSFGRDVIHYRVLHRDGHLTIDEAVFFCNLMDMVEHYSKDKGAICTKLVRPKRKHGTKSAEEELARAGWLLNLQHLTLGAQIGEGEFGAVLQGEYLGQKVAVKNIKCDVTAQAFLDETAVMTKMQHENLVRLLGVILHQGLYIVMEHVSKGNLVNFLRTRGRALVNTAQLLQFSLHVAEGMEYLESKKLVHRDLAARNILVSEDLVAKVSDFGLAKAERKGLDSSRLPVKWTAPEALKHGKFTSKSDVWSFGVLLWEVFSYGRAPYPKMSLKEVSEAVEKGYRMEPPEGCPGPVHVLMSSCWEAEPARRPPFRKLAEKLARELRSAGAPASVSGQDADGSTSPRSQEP

FYN = target: T2, FYN (Homo sapiens, UniProt P06241); assay: KINOMEscan ScanTK; assay type: binding
T2 construct: purchased Eurofins DiscoverX KINOMEscan (scanTK)

[1] = target: T3, ABL1(H396P)-nonphosphorylated (Homo sapiens, UniProt P00519, H396P); assay: KINOMEscan ScanTK; assay type: binding
T3 construct: purchased Eurofins DiscoverX KINOMEscan (scanTK)

FGFR4 = target: T4, FGFR4 (Homo sapiens, UniProt P22455); assay: KINOMEscan ScanTK; assay type: binding
T4 construct: purchased Eurofins DiscoverX KINOMEscan (scanTK)

FGFR1 = target: T5, FGFR1 (Homo sapiens, UniProt P11362); assay: KINOMEscan ScanTK; assay type: binding
T5 construct: purchased Eurofins DiscoverX KINOMEscan (scanTK)

FES = target: T6, FES (Homo sapiens, UniProt P07332); assay: KINOMEscan ScanTK; assay type: binding
T6 construct: purchased Eurofins DiscoverX KINOMEscan (scanTK)

TMD8 cells = assay: Annexin V/propidium iodide staining (apoptosis, viability); assay type: cell-based, human; details: 72 h
Procedure: We tested the effects of compounds in TMD8 cells, derived from an activated B-cell DLBCL. These cells have constitutive signaling via the BCR and additionally carry MYD88^L265P and CD79B mutations which give rise to My-T-BCR complex. […] Apoptosis was quantified after exposure of cells to compounds for 72 h using annexin V/PI staining and flow cytometry (Figure 3E, Figure S4).
Cells were washed in phosphate-buffered saline and resuspended in 300 μL of annexin V staining buffer (10 mM HEPES HCl (pH 7.4), 140 mM NaCl, 2.5 mM CaCl2) supplemented with 2.5 μg/mL fluorescein isothiocyanate-labeled annexin V (kind gift from Dr Patrick Duriez, Protein Core Facility, University of Southampton) and 12.5 μM propidium iodide (Invitrogen). Cells were analyzed by flow cytometry (Canto II system, BD Biosciences) and the percentage of viable cells was determined by calculating the proportion of Annexin V-/PI-cells as a percentage of all cells (results for untreated cells at 72 h set to 100%).

EGFR(L858R) = target: T7, EGFR(L858R) (Homo sapiens, UniProt P00533, L858R); assay: KINOMEscan ScanTK; assay type: binding
T7 construct: purchased Eurofins DiscoverX KINOMEscan (scanTK)

INSRR = target: T8, INSRR (Homo sapiens, UniProt P14616); assay: KINOMEscan ScanTK; assay type: binding
T8 construct: purchased Eurofins DiscoverX KINOMEscan (scanTK)

[2] = target: JAK3, catalytic domain (795–1124) (Homo sapiens, UniProt P52333); assay: PhosphoSens enzymatic IC50 (AssayQuant)
From the text: Biochemical enzymatic IC50 data were generated by AssayQuant Technologies (Marlborough, MA) using the PhosphoSens Platform. […] Reaction rate versus log [inhibitor concentration] data were fitted to the four-parameter logistic equation [drawing 1]

BTK, full length (2–659) = BTK, full length (2–659) (Homo sapiens, UniProt Q06187); assay: Kinact/Ki determination, PhosphoSens progress curve analysis; assay type: biochemical; details: BTK
Procedure: Nonlinear regression was performed using the Solver algorithm in Excel. […] Two-step Kinact/Ki fits were extracted from the progress curve analysis of all compounds against BTK, enabling independent Kinact and Ki determinations.

T8 sequence (P14616 27-1297): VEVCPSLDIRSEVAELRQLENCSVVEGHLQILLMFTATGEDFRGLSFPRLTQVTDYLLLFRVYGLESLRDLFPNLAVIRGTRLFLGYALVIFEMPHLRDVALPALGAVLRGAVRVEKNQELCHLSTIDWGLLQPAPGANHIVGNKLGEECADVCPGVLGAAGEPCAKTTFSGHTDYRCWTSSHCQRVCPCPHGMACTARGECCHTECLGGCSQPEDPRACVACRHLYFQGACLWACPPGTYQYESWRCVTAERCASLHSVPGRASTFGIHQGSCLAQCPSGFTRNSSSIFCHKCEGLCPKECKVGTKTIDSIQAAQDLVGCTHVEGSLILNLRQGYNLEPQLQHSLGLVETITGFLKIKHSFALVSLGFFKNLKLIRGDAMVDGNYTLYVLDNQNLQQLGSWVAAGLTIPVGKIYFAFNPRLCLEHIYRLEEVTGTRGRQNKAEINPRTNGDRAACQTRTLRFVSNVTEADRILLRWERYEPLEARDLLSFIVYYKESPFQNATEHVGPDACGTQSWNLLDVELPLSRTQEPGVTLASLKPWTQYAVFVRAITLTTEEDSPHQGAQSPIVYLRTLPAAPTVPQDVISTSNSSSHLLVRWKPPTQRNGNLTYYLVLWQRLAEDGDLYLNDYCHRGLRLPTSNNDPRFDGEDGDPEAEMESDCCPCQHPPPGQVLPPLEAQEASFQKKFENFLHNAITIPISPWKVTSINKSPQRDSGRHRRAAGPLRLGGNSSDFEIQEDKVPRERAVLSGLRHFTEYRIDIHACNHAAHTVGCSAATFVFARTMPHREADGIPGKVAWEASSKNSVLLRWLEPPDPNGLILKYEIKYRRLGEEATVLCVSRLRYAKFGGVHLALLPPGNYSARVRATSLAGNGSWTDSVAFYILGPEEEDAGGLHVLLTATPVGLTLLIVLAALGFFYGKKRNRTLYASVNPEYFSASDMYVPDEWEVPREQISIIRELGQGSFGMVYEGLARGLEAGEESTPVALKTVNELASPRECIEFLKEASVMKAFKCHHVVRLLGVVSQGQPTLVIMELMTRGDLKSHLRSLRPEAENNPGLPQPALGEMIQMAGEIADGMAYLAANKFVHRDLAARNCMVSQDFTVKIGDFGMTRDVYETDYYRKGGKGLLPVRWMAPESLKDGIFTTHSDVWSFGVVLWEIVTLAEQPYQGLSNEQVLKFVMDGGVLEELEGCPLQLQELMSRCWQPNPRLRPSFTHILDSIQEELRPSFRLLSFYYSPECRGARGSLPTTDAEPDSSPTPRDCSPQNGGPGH
BTK, full length (2–659), sequence (Q06187 2-659): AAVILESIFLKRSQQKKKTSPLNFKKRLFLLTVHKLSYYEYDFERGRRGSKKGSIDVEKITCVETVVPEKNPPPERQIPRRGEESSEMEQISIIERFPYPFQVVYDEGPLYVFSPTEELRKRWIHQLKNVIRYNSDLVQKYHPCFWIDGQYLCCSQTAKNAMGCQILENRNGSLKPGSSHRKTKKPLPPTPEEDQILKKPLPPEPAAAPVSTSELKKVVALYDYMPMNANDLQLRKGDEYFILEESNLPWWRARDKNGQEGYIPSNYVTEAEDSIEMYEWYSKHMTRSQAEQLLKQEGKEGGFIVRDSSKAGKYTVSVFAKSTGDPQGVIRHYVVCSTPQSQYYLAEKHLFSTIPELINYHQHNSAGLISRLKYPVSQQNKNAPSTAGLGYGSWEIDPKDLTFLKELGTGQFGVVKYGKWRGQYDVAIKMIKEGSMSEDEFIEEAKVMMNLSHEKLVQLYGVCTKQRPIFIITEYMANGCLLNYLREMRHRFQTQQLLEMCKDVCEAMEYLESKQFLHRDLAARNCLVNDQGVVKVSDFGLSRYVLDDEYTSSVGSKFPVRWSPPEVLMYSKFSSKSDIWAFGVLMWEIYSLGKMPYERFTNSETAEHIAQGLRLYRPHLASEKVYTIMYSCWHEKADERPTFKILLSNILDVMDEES
T6 sequence (P07332 whole entry): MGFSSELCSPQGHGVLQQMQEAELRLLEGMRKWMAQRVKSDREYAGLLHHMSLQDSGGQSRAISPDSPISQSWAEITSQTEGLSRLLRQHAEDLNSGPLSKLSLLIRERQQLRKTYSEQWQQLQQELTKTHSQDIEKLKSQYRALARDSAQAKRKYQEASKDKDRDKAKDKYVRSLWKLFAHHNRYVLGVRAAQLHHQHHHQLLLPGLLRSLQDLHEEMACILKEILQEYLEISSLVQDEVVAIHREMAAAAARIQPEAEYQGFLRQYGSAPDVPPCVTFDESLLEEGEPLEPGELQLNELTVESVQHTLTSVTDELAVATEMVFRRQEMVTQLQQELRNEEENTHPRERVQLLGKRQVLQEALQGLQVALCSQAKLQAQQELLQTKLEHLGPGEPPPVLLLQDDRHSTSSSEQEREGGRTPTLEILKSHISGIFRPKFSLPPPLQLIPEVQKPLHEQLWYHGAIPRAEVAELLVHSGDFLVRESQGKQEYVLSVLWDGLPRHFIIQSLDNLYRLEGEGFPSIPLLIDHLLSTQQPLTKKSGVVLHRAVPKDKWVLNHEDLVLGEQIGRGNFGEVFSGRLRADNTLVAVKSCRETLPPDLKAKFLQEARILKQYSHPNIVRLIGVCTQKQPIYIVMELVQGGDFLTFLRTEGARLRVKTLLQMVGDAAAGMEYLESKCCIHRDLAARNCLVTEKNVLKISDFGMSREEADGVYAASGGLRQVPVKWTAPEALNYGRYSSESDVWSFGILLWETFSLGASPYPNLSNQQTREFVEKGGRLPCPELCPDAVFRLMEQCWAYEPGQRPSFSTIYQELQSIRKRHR
T7 sequence (P00533 25-1210 L858R): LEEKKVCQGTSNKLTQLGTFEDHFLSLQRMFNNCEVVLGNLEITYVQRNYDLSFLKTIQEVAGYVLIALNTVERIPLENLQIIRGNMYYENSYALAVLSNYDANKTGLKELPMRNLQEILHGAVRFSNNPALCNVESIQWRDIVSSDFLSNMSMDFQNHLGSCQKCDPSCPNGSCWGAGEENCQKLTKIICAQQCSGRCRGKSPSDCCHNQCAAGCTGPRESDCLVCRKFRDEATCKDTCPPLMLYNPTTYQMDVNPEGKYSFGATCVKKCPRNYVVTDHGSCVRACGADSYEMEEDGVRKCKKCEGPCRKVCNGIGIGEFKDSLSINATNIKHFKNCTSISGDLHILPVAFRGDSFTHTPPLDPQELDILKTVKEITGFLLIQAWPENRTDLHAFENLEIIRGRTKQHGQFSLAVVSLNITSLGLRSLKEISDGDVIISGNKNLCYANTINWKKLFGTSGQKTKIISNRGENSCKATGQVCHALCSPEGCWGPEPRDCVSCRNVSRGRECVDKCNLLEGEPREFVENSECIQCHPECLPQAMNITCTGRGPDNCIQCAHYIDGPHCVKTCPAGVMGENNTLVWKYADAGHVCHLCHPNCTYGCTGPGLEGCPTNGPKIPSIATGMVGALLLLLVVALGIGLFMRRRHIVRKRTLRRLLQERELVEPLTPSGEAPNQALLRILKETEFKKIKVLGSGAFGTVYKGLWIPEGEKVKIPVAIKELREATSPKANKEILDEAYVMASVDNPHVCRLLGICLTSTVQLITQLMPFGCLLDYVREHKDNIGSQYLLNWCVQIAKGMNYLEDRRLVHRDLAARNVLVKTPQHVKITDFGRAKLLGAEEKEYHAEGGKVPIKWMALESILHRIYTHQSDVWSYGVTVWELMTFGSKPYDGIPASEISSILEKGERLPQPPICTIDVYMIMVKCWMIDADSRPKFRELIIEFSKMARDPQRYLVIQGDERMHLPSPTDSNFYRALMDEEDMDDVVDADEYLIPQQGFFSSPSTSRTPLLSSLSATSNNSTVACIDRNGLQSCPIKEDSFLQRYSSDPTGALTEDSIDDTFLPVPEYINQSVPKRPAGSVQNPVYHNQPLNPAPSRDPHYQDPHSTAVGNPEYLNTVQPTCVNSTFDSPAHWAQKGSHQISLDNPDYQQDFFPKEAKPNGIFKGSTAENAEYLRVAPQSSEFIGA
T5 sequence (P11362 22-822): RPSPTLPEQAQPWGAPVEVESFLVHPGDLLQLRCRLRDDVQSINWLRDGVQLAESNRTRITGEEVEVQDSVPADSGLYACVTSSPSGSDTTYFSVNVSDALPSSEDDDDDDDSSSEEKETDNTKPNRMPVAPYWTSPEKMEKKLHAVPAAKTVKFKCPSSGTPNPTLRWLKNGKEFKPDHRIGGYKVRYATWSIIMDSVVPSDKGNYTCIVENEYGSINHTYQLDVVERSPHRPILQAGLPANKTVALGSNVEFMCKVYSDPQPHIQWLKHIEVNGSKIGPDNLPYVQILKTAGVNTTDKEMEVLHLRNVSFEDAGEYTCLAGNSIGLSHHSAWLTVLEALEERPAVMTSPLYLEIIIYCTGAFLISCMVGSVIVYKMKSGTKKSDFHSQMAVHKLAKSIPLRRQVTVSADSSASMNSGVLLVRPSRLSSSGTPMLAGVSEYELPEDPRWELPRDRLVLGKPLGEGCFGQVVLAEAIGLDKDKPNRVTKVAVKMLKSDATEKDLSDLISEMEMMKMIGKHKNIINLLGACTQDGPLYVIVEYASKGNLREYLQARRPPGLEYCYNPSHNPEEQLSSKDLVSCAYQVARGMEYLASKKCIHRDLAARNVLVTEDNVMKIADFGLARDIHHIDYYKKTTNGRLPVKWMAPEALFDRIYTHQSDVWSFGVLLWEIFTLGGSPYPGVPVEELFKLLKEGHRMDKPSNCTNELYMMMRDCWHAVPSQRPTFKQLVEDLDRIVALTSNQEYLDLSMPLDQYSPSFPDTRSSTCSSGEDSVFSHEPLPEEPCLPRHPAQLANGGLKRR
JAK3, catalytic domain (795–1124), sequence (P52333 795-1124): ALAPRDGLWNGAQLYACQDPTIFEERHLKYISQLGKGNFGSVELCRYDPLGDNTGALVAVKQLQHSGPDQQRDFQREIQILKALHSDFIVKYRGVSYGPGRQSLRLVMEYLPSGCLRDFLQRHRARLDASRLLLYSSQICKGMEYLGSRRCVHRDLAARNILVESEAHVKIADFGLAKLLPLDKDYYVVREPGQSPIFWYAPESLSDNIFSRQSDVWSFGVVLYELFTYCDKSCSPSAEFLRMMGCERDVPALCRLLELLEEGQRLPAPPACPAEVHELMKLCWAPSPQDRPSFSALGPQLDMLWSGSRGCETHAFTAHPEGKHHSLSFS

SMILES | %Control @1000nM (FLT3(ITD,F691L)) | %Control (FLT3(ITD,F691L); @1000nM) | remaining binding at 1 µM (CTK; @1000nM, read-out: %Control) | remaining binding at 1 µM (CTK; read-out: %Control @1000nM) | remaining binding at 1 µM (FYN; @1000nM, read-out: %Control) | remaining binding at 1 µM (FYN; read-out: %Control @1000nM) | remaining binding at 1 µM ([1]; @1000nM, read-out: %Control) | remaining binding at 1 µM ([1]; read-out: %Control @1000nM) | remaining binding at 1 µM (FGFR4; @1000nM, read-out: %Control) | remaining binding at 1 µM (FGFR4; read-out: %Control @1000nM) | remaining binding at 1 µM (FGFR1; @1000nM, read-out: %Control) | remaining binding at 1 µM (FGFR1; read-out: %Control @1000nM) | remaining binding at 1 µM (FES; @1000nM, read-out: %Control) | remaining binding at 1 µM (FES; read-out: %Control @1000nM) | other results
C=CC(=O)N1CCC[C@@H](n2nc(-c3ccc(Oc4ccccc4)cc3)c3c(N)ncnc32)C1 [Compound 1g, Ibrutinib, reference compound] | 100% | 100% | 80% | 80% | 9.6% | 9.6% | 14% | 14% | 96% | 96% | 33% | 33% | 100% | 100% | 
Cc1cnc(S(C)(=O)=O)nc1N1CCCC(n2nc(-c3ccc(Oc4ccccc4)cc3)c3c(N)ncnc32)C1 (centres unmarked) [Compound 8a, 1-(1-(5-Methyl-2-(methylsulfonyl)pyrimidin-4-yl)piperidin-3-yl)-3-(4-phenoxyphenyl)-1H-pyrazolo[3,4-d]pyrimidin-4-amine] | 96% | 96% | 67% | 67% | 17% | 17% | 61% | 61% | 97% | 97% | 77% | 77% | 100% | 100% | fold lower apoptotic potency than Ibrutinib (TMD8 cells): ~10 fold; induction of apoptosis (TMD8 cells): induced apoptosis; % difference (compound - Ib %Control) (FLT3(ITD,F691L); @1000nM): -4%; difference in %Control versus compound Ib at 1 µM (CTK; @1000nM): -13%; %Control difference from compound Ib at 1 µM (EGFR(L858R); @1000nM): 81.1%; remaining binding at 1 µM (EGFR(L858R); @1000nM, read-out: %Control): 83%; remaining binding at 1 µM (EGFR(L858R); read-out: %Control @1000nM): 83%; difference in % of control versus compound Ib at 1 µM (FYN; @1000nM): 7.4%; difference in %Control versus compound Ib at 1 µM ([1]; @1000nM): 47%; difference in %Control versus compound Ib at 1 µM (INSRR; @1000nM): -2%; remaining binding at 1 µM (INSRR; @1000nM, read-out: %Control): 94%; remaining binding at 1 µM (INSRR; read-out: %Control @1000nM): 94%; difference in %Control from compound Ib at 1 µM (FGFR4; @1000nM): 1%; difference in %Control from compound Ib at 1 µM (FGFR1; @1000nM): 44%; difference in %Control versus compound Ib at 1 µM (FES; @1000nM): 0%; IC50 [2]: > 1000 nM; Ki (BTK, full length (2–659)): 9.08 ± 0.41 nM; kinact (BTK, full length (2–659)): 0.00659 ± 0.00019 s⁻¹; kinact/KI (BTK, full length (2–659); read-out: Kinact/Ki): 726000 M⁻¹ s⁻¹
